Drawing on patent US12077503B2, “Substituted cyclic amides and their use as herbicides” (FMC CORPORATION, priority 2015, dated 2024), this text covers pest or weed control and plant injury for 4 molecules.

Structures are written as SMILES.

Assay type in all cases: in vivo
In assay [1] the test system is barnyardgrass (Echinochloa crus-galli). In words: Test B flooded paddy test. Conditions: Echinochloa crus-galli, 250 g ai/ha, Flood; 0 to 100 scale where 0 is no effect and 100 is complete control; read-out: Barnyardgrass plant response rating. The procedure, abridged: (§1)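 Percent control, visually estimated after 13–15 d in the greenhouse on a 0–100 basis, compares treated pots with untreated ones; compound was put into paddy water 3 cm above the soil when plants had two leaves.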

For assay [2], the system named is ducksalad (Heteranthera limosa). The assay is described as follows: Test B flooded paddy test. Particulars: Heteranthera limosa, 250 g ai/ha, Flood; 0 to 100 scale where 0 is no effect and 100 is complete control; read-out: Ducksalad plant response rating. In outline: as §1
The subject of a further assay is rice (Oryra sativa). In words: Test B flooded paddy test. Conditions: Oryza sativa, 250 g ai/ha, Flood; 0 to 100 scale where 0 is no effect and 100 is complete control; read-out: Rice plant response rating. The procedure, abridged: as §1
Assay [3] relates to sedge, umbrella (small-flower umbrella sedge, Cyperus difformis). In words: Test B flooded paddy test. Particulars: Cyperus difformis, 250 g ai/ha, Flood; 0 to 100 scale where 0 is no effect and 100 is complete control; read-out: Sedge, Umbrella plant response rating. In outline:
as §1

Assay [4] has as its system ryegrass, Italian (Italian ryegrass, Lolium multiflorum). In words: Test A preemergence. Conditions: Lolium multiflorum, pre-emergence, 240 h, preemergence, 0 to 100 scale where 0 is no effect and 100 is complete control, read-out: Ryegrass, Italian plant response rating; for pest or weed control at 125 g/ha: 125 g ai/ha, visual injury rating, approximately 10 d; for pest or weed control at 500 g/ha: 500 g ai/ha. In outline: (§2)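 Each rating is a visual injury score from 0 to 100 given about 10 d after treatment, judged against untreated controls kept alongside in the greenhouse. In loam soil–sand blend, seeds got a preemergence directed soil spray, while postemergence plants were 2 to 10 cm tall at spraying.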

For assay [5], the system named is wheat (Triticum aestivum). The assay is described as follows: Test A postemergence. Conditions: Triticum aestivum, post-emergence, 240 h, postemergence; for plant injury at 125 g/ha: 125 g ai/ha, visual injury vs untreated controls after approx. 10 d, 0 = no effect, 100 = complete control, read-out: Wheat plant response rating (0 to 100 scale); for plant injury at 500 g/ha: 500 g ai/ha, 0 to 100 scale, 0 is no effect, 100 is complete control, read-out: Wheat plant response rating. The procedure, abridged: as §2

In assay [6] the test system is barnyardgrass (Echinochloa crus-galli). In words: Test A postemergence. Conditions: Echinochloa crus-galli, post-emergence, 240 h, postemergence; for pest or weed control at 125 g/ha: 125 g ai/ha, visual injury vs untreated controls after approx. 10 d, 0 = no effect, 100 = complete control, read-out: Barnyardgrass plant response rating (0 to 100 scale); for pest or weed control at 500 g/ha: 500 g ai/ha, 0 to 100 scale, 0 is no effect, 100 is complete control, read-out: Barnyardgrass plant response rating. The procedure, abridged:
as §2

The subject of assay [7] is pigweed (Amaranthus retroflexus). In words: Test A postemergence. Particulars: Amaranthus retroflexus, post-emergence, 240 h, postemergence; for pest or weed control at 125 g/ha: 125 g ai/ha, visual injury vs untreated controls after approx. 10 d, 0 = no effect, 100 = complete control, read-out: Pigweed plant response rating (0 to 100 scale); for pest or weed control at 500 g/ha: 500 g ai/ha, 0 to 100 scale, 0 is no effect, 100 is complete control, read-out: Pigweed plant response rating. In outline: as §2

The test system of assay [8] is blackgrass (Alopecurus myosuroides). In words: Test A postemergence. Conditions: Alopecurus myosuroides, post-emergence, 240 h, postemergence; for pest or weed control at 125 g/ha: 125 g ai/ha, visual injury vs untreated controls after approx. 10 d, 0 = no effect, 100 = complete control, read-out: Blackgrass plant response rating (0 to 100 scale); for pest or weed control at 500 g/ha: 500 g ai/ha, 0 to 100 scale, 0 is no effect, 100 is complete control, read-out: Blackgrass plant response rating. In outline:
as §2

The subject of assay [9] is giant foxtail (Setaria faberii). The assay is described as follows: Test A postemergence. Conditions: Setaria faberi, post-emergence, 240 h, postemergence; for pest or weed control at 125 g/ha: 125 g ai/ha, visual injury vs untreated controls after approx. 10 d, 0 = no effect, 100 = complete control, read-out: Foxtail, Giant plant response rating (0 to 100 scale); for pest or weed control at 500 g/ha: 500 g ai/ha, 0 to 100 scale, 0 is no effect, 100 is complete control, read-out: Foxtail, Giant plant response rating. In outline:
as §2

Assay [10] has as its system Galium (catchweed bedstraw, Galium aparine). The assay is described as follows: Test A postemergence. Conditions: Galium, post-emergence, 240 h, postemergence; for pest or weed control at 125 g/ha: 125 g ai/ha, visual injury vs untreated controls after approx. 10 d, 0 = no effect, 100 = complete control, read-out: Galium plant response rating (0 to 100 scale); for pest or weed control at 500 g/ha: 500 g ai/ha, 0 to 100 scale, 0 is no effect, 100 is complete control, read-out: Galium plant response rating. In outline: as §2

The subject of assay [11] is ragweed (common ragweed, Ambrosia elatior). In words: Test A postemergence. Particulars: Ambrosia artemisiifolia, post-emergence, 240 h, postemergence; for pest or weed control at 125 g/ha: 125 g ai/ha, visual injury vs untreated controls after approx. 10 d, 0 = no effect, 100 = complete control, read-out: Ragweed plant response rating (0 to 100 scale); for pest or weed control at 500 g/ha: 500 g ai/ha, 0 to 100 scale, 0 is no effect, 100 is complete control, read-out: Ragweed plant response rating. The procedure, abridged: as §2

The subject of another assay is corn (Zea mays). In words: Test A postemergence. Conditions: Zea mays, post-emergence, 240 h, postemergence; for plant injury at 125 g/ha: 125 g ai/ha, visual injury vs untreated controls after approx. 10 d, 0 = no effect, 100 = complete control, read-out: Corn plant response rating (0 to 100 scale); for plant injury at 500 g/ha: 500 g ai/ha, 0 to 100 scale, 0 is no effect, 100 is complete control, read-out: Corn plant response rating. In outline:
as §2

The test system of assay [12] is ryegrass, Italian (Italian ryegrass, Lolium multiflorum). The assay is described as follows: Test A postemergence. Particulars: Lolium multiflorum, post-emergence, 240 h, postemergence; for pest or weed control at 125 g/ha: 125 g ai/ha, visual injury vs untreated controls after approx. 10 d, 0 = no effect, 100 = complete control, read-out: Ryegrass, Italian plant response rating (0 to 100 scale); for pest or weed control at 500 g/ha: 500 g ai/ha, 0 to 100 scale, 0 is no effect, 100 is complete control, read-out: Ryegrass, Italian plant response rating. The procedure, abridged: as §2

On to `Cc1ccc([C@H]2CCN(C)C(=O)[C@@H]2C(=O)Nc2ccccc2C(F)(F)F)cc1` [Compound 1219], for which the pest or weed control at 250 g/ha was found to be 0% in assay [1], 60% in assay [2], 0% with rice (Oryra sativa) and 40% in assay [3]. Also, the pest or weed control at 125 g/ha was 0% in [4]; 30% in [6]; 0% in [7]; 0% in [8]; 50% in assay [9]; 0% in assay [10]. Besides, the pest or weed control at 125 g/ha in assay [11] and in assay [12] was 0% throughout. Besides, the pest or weed control at 500 g/ha was determined as 0% in assay [4]; 60% in [6]; 0% in assay [7]; 0% in assay [8]; 80% in [9]; 0% in assay [10]. Moreover, the pest or weed control at 500 g/ha in assay [11] and in assay [12] was 20% each time. Besides, the plant injury at 125 g/ha (in assay [5]; in the assay on corn (Zea mays)) was 0% in each case. Further, the plant injury at 500 g/ha (in assay [5]; with corn (Zea mays)) was 0% each time.
As to `Cc1ccc([C@H]2CCN(C)C(=O)[C@@H]2C(=O)Nc2cccc(Cl)c2F)cc1` [Compound 1223], the pest or weed control at 250 g/ha was 80% in assay [1], 90% in [2], 30% in the assay with rice (Oryra sativa) and 0% in assay [3]. For the same molecule, the pest or weed control at 125 g/ha in [4] stood at 0%; in assay [6], 30%; in [7], 0%; in assay [8], 30%; in assay [9], 90%; in [10], 20%. Further, the figures for the pest or weed control at 125 g/ha in assay [11] and in assay [12] were 0% and 20%, respectively. The pest or weed control at 500 g/ha is 0% in assay [4]; 50% in assay [6]; 0% in assay [7]; 50% in assay [8]; 90% in assay [9]; 40% in assay [10]. For the same molecule, the pest or weed control at 500 g/ha in assay [11] came to 20%; in assay [12], 60%. Also, the plant injury at 125 g/ha (in assay [5]; in the assay with corn (Zea mays)) was 0% throughout. The plant injury at 500 g/ha in assay [5] amounted to 30%; in the assay with corn (Zea mays) it was 0%.
As to `Cc1cccc([C@H]2CN(C)C(=O)[C@@H]2C(=O)Nc2ccc(F)c(F)c2F)c1` [Compound 1231], the pest or weed control at 250 g/ha was 85% in assay [1], 100% in [2], 0% in the assay with rice (Oryra sativa) and 0% in [3]. Besides, the pest or weed control at 125 g/ha in [4] was 40%; in assay [6], 80%; in assay [7], 0%; in assay [8], 0%; in assay [9] it was 80%; in assay [10] it was 50%. The results for the pest or weed control at 125 g/ha in assay [11] and in assay [12] were 0% and 40%, respectively. Also, the pest or weed control at 500 g/ha in [4] amounted to 90%; in assay [6], 80%; in assay [7], 50%; in [8] it was 40%; in [9], 90%; in assay [10], 70%. For the same molecule, the figures for the pest or weed control at 500 g/ha in assay [11] and in [12] were 30% and 50%, respectively. Further, the plant injury at 125 g/ha in [5] was 50%; with corn (Zea mays), 70%. For the same molecule, the plant injury at 500 g/ha in the assay on corn (Zea mays) was 80%.
With `Cc1cccc([C@H]2CN(C)C(=O)[C@@H]2C(=O)Nc2cccc(F)c2C)c1` [Compound 1233], the pest or weed control at 250 g/ha in assay [1] was 80%; in assay [2], 100%; in the assay on rice (Oryra sativa), 15%; in assay [3] it was 0%. Further, the pest or weed control at 125 g/ha turned out to be 40% in assay [4]; 80% in assay [6]; 0% in [7]; 0% in [8]; 80% in assay [9]; 20% in assay [10]. For the same molecule, the results for the pest or weed control at 125 g/ha in assay [11] and in assay [12] were 0% and 40%, respectively. Moreover, the pest or weed control at 500 g/ha in assay [4] is 70%; in assay [6], 80%; in assay [7], 20%; in assay [8], 40%; in assay [9] it was 90%; in assay [10], 60%. Besides, the pest or weed control at 500 g/ha in assay [11] worked out at 30%; in [12], 50%. The plant injury at 125 g/ha in assay [5] was 40%; in the assay with corn (Zea mays), 70%. Also, the plant injury at 500 g/ha in the assay on corn (Zea mays) was 80%.
